Peptide text beside a SMILES is read from it. * marks the point of attachment. Cbz = O=C(OCc1ccccc1)*; CH2F = FC*
Assays:
[1] = system: TNF-induced relocalisation of EYFP-TRADD (TNFR1-containing complex I) in HeLa cells; assay: TNF-mediated relocation of fluorescently tagged TRADD in Clone #49-E2 HeLa cells, 384-well (Example 2); type: cell-based, human; details: for selectivity: relocalisation of the reporter molecule EYFP-TRADD effected by other compounds or molecules: added instead of TNF, FIG. 12; for effect of downstream signalling inhibitors on detectable EYFP-TRADD clusters: increasing concentrations, in the presence of TNF, FIGS. 14-16
Description: The following experimental procedure to detect the reporter molecule in the presence of absence of a “test” compound (or molecule, as described below) was conducted.
On day 1, 10^3 cells per well were plated in thin glass bottom 384 wells plate in 50 μl of culture media (DMEM glutamax, 10% FBS, peni-strep, geneticin, hygromycin). The cells were incubated overnight at 37° C. On day 2, media was aspirated, and 35 μl of warm DMEM, 2, 5% FBS, HEPES 10 mM added. Then, 15 μl of 4× the test compound diluted in DMEM, 2, 5% FBS, HEPES 10 mM was added to cells using a Biomek laboratory automation workstation (Beckman-Coulter). This was incubated at room temperature for 1.5 min. […] The cells were washed three times with PBS 1× using an Embla 384 Cell Washer (Molecular Devices). Cells were fixed by adding PBS 1×, 5% PFA+Hoescht 0.2 μg/ml using a Multidrop 384 dispensor (Thermo Scientific; 30 μl/well) followed by an incubation for 20 min at room temperature in the dark. After a further three washes of the cells with PBS 1× using the Embla 384 Cell Washer, 60 μl per well of PBS 1×, 1% peni-strep was added. The plate was covered with a transparent sealing film. Readings were then taken on the Scientific Cellomics ArrayScan HCS Reader automated microscope system as used in Example 1.

[2] = system: TNF-mediated relocation of TRADD-EYFP in HeLa cells; assay: TNF-mediated relocation of TRADD-EYFP / EYFP-TRADD in stably transfected HeLa cells (Example 1, clone HeLa/TRADD-EYFP#49); type: cell-based, human; details: for blocking of TNF-induced relocalisation of fluorescently tagged TRADD to punctuate structures: in the presence of TNF, R-7050 100 μM with 1000 ng/ml TNF (FIG. 6), etanercept FIG. 9
Description: The pTREhyg-EYFP-TRADD and pTREhyg-TRADD-EYFP expression vectors were stably transfected using PolyFect® Transfection Reagent (Qiagen), according to the manufacturer's protocol, into HeLa Tet-On Cell Line cells (Clontech Laboratories, Inc.). This cell line is a neomycin resistant human cervical epithelioid carcinoma cell line transformed with a modified version of pTet-On which has a nuclear localization signal fused to the N-terminus (pUHD172-1neo).
Intracellular location of EYFP-TRADD and TRADD-EYFP was determined using fluorescence microscopy. Using a fluorescence microscope, cells are illuminated with light of a specific wavelength which is absorbed by the EYFP, causing it to emit longer wavelengths of light (of a different colour than the absorbed light). The illumination light is separated from the much weaker emitted fluorescence through the use of an emission filter, and an image of the cell created.
We then used an automated microscope system (a Thermo Scientific Cellomics ArrayScan HCS Reader) as an automated fluorescence microscopic imaging system designed for high content screening and high content analysis. The instrument features include optics by Carl Zeiss, broad white-light source, 12-bit cooled CCD camera, and controller software. The instrument is designed to work with image analysis modules (Thermo Scientific BioApplications) that automatically convert images into numeric data that capture changes in cell size, shape, intensity, and other properties. The system allows: high content screening, analysis of cells containing fluorescent reporter molecules in an array of locations, treating the cells in the array of locations with one or more test compounds, imaging numerous cells in each location with fluorescence optics, and converting the optical information into digital data. This digital data was then used to determine the positioning, distribution, environment or activity of the fluorescently labelled reporter molecules (EYFP-TRADD or TRADD-EYFP) in the transfected HeLa cells and the distribution of the cells. This information was analysed in terms of a positive, negative or null effect of each test compound being examined. This system allowed differences between untreated and treated cells to be measured, for example by counting the number of fluorescent spots (rather than diffuse fluorescence) in cells.
Using GraphPad Prism (v. 4.01, San Diego, Calif., USA), a dose-response curve was generated (FIG. 7). Percentage responders (y-axis values in FIGS. 7 and 8) were determined as the number of cells with more than five spots, which is an alternative but qualitatively similar measurement to spot count per cell (see below).

[3] = system: TNF-induced TRADD relocalisation in HeLa TRADD DR3 cells; assay: TNF-induced TRADD-EYFP relocation in HeLa TRADD DR3 recombinant cells (Example 3); type: cell-based, human; details: in the presence of 100 ng/ml TNF; FIG. 19
Description: (§1) In a further example of the present invention, a method involving the TL1A-activated DR3 receptor was developed. The TRADD-EYFP HeLa clones comprising the TRADD-EYFP reporter molecule transfected into HeLa cells as described in Example 1 was employed. The DR3 receptor (cDNA sequence shown in SEQ ID NO: 19 and encoded protein shown in SEQ ID NO: 20) which had been cloned in the vector pCR3.1 (Invitrogen) was transferred into the vector pTre2 (Clontech) using the Gateway® cloning technique with the primers Attb1 Forward primer (SEQ ID NO: 21) and Attb2 Reverse primer (SEQ ID NO: 22), yielding a pTRE2-DR3 expression vector (SEQ ID NO: 23). This expression vector was then transfected into the TRADD-EYFP HeLa clones to produce a double transformants designated HeLa TRADD DR3.
(§2) Monitoring and quantification of the TRADD-EYFP reporter molecule was conducted as described in Examples 1 and 2 above. […] The data of FIG. 17 are depicted graphically in FIG. 18.

[4] = molecular target: T1, TL1A-activated DR3 receptor (Homo sapiens, UniProt Q93038, P167L); assay: TL1A-induced TRADD-EYFP relocation in HeLa TRADD DR3 recombinant cells (Example 3); type: cell-based; details: FIG. 17
T1 construct: (N); expressed in transfected cells; host or cells: HeLa Tet-On cells stably expressing TRADD-EYFP, transfected with pTRE2-DR3 (HeLa TRADD DR3)
T1 sequence (Q93038 with tags, fused parts or gaps P167L): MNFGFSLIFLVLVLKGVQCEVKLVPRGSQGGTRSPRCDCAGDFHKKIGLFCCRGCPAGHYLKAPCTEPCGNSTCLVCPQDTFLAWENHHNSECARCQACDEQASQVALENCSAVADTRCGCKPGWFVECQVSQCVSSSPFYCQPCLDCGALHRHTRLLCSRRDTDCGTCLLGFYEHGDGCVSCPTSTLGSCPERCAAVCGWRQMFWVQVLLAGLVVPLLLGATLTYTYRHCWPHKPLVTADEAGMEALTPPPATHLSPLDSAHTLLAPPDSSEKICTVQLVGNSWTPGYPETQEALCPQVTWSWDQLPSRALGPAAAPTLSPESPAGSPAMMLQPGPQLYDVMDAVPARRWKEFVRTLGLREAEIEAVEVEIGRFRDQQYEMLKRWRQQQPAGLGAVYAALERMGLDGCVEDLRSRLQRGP
Description: as §1, §2

## IL1β: Recombinant Human IL1β from Peprotech, Cat N° 200-01B
[1]
  selectivity: relocalisation of the reporter molecule EYFP-TRADD effected by other compounds or molecules: not effected

## FC(F)(F)c1nnc2c(Sc3ccccc3)nc3ccc(Cl)cc3n12 [R-7050]
[2]
  blocking of TNF-induced relocalisation of fluorescently tagged TRADD to punctuate structures: blocked
[2]; on 1000 ng/ml TNF, FIG. 8
  IC50: 2100 nM

## CC[C@H](C)[C@H](NC(=O)OCc1ccccc1)C(=O)N[C@@H](CCC(=O)OC)C(=O)N[C@H](C(=O)N[C@@H](CC(=O)OC)C(=O)CF)[C@@H](C)O [Z-IETD-FMK] (Cbz-IE(OMe)TD(OMe)-CH2F)
[1]
  effect of downstream signalling inhibitors on detectable EYFP-TRADD clusters: no dissociation of clusters

## etanercept
[1]; FIG. 13
  blocking of TNF-induced relocalisation of EYFP-TRADD: blocks
[3]
  IC50 on TNF-induced relocalisation: 53.8 ng/mL
  dose-dependent inhibition of TNF-induced relocalisation: dose-dependently inhibited
[4]; in the presence of 300 ng/ml TL1A
  dose-dependent inhibition of TL1A-induced relocalisation: not
[2]; TNF dose=300 ng/ml, FIG. 9
  IC50: 2740 nM
[2]
  blocking of TNF-induced relocalisation of fluorescently tagged TRADD to punctuate structures: block

## TL1A: Recombinant Human TL1A/TNFSF15 from R&D Systems, Cat N° 1319-TL
[1]
  selectivity: relocalisation of the reporter molecule EYFP-TRADD effected by other compounds or molecules: not effected
[4]; HeLa TRADD DR3 cells
  calculated EC50 of TL1A (TRADD-EYFP relocalisation to spots): 4.3 ng/mL

## O=C(c1ccc(Nc2nccc(-c3cc4ccccc4s3)n2)cc1)N1CCC(N2CCCC2)CC1 [IKK16]
[1]
  effect of downstream signalling inhibitors on detectable EYFP-TRADD clusters: no change in detectable EYFP-TRADD clusters

## TRAIL: recombinant human TRAIL from Millipore, Cat N° GF092
[1]
  selectivity: relocalisation of the reporter molecule EYFP-TRADD effected by other compounds or molecules: not effected

## Polyinosinic-polycytidylic acid potassium salt [Poly I:C]
[1]
  selectivity: relocalisation of the reporter molecule EYFP-TRADD effected by other compounds or molecules: not effected

## C=C1[C@@H](C)[C@H]2[C@H](Cc3ccccc3)NC(=O)[C@]23[C@H](OC(C)=O)/C=C/[C@@](C)(O)C(=O)[C@@H](C)C/C=C/[C@H]3[C@@H]1O [cytochalasin D]
[1]
  effect of downstream signalling inhibitors on detectable EYFP-TRADD clusters: a reduction in detectable EYFP-TRADD clusters
